In US20090221600A1, “PYRIDO-PYRIDIMIDINE DERIVATIVES USEFUL AS ANTIINFLAMMATORY AGENTS” (priority 2005, published 2009):

For `Cc1ccccc1-c1cc2cnc(NC3CCN(Cc4ccccc4)CC3)nc2n(C2CCOCC2)c1=O` [Compound No. 9, 2-[(1-Benzyl-piperidin-4-yl)amino]-6-(2-methyl-phenyl)-8-(tetrahydro-2H-pyran-4-yl)pyrido[2,3-d]pyrimidin-7(8H)-one], the melting point was 201.8 to 203.2 °C.
